The text below walks through data of ChEMBL document CHEMBL1201862, “PubChem BioAssay data set” (2004).

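Protocol summary: plate cells (96-well), add compound at 5 concentrations, incubate 48 h, interpolate endpoints linearly. GI50 marks 50% less growth.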 Active and inactive are the calls of the source. Rule as the data show it: active = GI50 up to about 1.1 µM and inactive = higher.

Some test systems named below: SK-MEL-28; RPMI-8226; KM12; NCI-H23; Malme-3M; 786-0; BT-549; ACHN; K562; SK-MEL-5; UACC-62; LXFL 529; Hs-578T; OVCAR-5; HCT-15; NCI-H226; MDA-MB-435; COLO 205; LOX IMVI; HCC 2998.
Common to all, as to experiment: DTP human tumour cell line panel, 48 h

By GI50 is commonly meant the concentration at which growth is held to half of that of the control. As to `O=C1C(NCCO)=C(N2CC2)C(=O)C(NCCO)=C1N1CC1`, the GI50 with SK-MEL-28 was > 100 µM (inactive); in the experiment with RPMI-8226, 44.6 µM (inactive); in the experiment on KM12, 74.5 µM (inactive); in the experiment with NCI-H23, 29.2 µM (inactive); with Malme-3M it was > 100 µM (inactive); in the experiment with 786-0, 24.4 µM (inactive). Besides, the GI50 in the experiment on BT-549 is > 69 µM (inactive); with ACHN it was 30.8 µM (inactive); in the experiment on K562 it was 39.5 µM (inactive); in the experiment with SK-MEL-5, 50 µM (inactive); in the experiment on UACC-62, 25.1 µM (inactive); in the experiment with LXFL 529, > 51.6 µM (inactive). The GI50 in the experiment with Hs-578T was > 100 µM (inactive); in the experiment on OVCAR-5, 58.2 µM (inactive); in the experiment on HCT-15, 57.5 µM; with NCI-H226 it was 57.5 µM (inactive); with MDA-MB-435 it was > 100 µM (inactive); in the experiment with COLO 205 it was > 67.6 µM (inactive). The GI50 in the experiment on LOX IMVI was 17.1 µM (inactive); in the experiment on HCC 2998, > 100 µM (inactive).
